Assays:
Conditions in all cases: incubation time: 72 h
CAL-148 = assay: drug sensitivity score (DSS), CellTox Green (DSS (AUC-based score)); higher = stronger drug effect (viability inhibition or cytotoxicity); extreme values may be limits of the assay
How it was run: (§1)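 A drug sensitivity score was derived from the area under each fitted dose-response curve. Breast cancer cells (20 µl suspension) were seeded onto compound in 384-well plates, using 5 concentrations 10-fold apart over a compound-specific 10,000-fold range, and incubated 72 h. Readouts were CellTox Green fluorescence and then CellTiter-Glo luminescence, with every plate normalised to 0.1 % DMSO and a positive kill control.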

MDA-MB-453 = assay: as above
How it was run: as §1

MFM-223 [1] = assay: as above
How it was run: as §1

CAL-120 = assay: as above
How it was run: as §1

HCC1143 = assay: as above
How it was run: as §1

HCC1599 [2] = assay: as above
How it was run: as §1

CAL-51 [3] = assay: as above
How it was run: as §1

BT-549 = assay: as above
How it was run: as §1

DU-4475 = assay: as above
How it was run: as §1

CAL-85-1 [4] = assay: as above
How it was run: as §1

MDA-MB-231 = assay: as above
How it was run: as §1

MCF-10A = assay: as above
How it was run: as §1

BT-474 = assay: as above
How it was run: as §1

HCC1937 [5] = assay: as above
How it was run: as §1

MDA-MB-468 [6] = assay: as above
How it was run: as §1

Hs578T = assay: as above
How it was run: as §1

MDA-MB-436 = assay: as above
How it was run: as §1

HDQ-P1 [7] = assay: as above
How it was run: as §1

MFM-223 [8] = assay: normalised viability (% of control), CellTiter-Blue; higher = more viable cells (about 100 = DMSO control)
How it was run: (§2)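 Seeded at 20 µl suspension per well onto compound-loaded 384-well plates, breast cancer cell lines were incubated 72 h. CellTiter-Blue fluorescence at 560/590 nm was then read, with each plate normalised to vehicle (100) and a positive kill control (0). Normalised viability is reported at a single listed concentration of the series.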

HCC1599 [9] = assay: as above
How it was run: as §2

CAL-51 [10] = assay: as above
How it was run: as §2

CAL-85-1 [11] = assay: as above
How it was run: as §2

HCC1937 [12] = assay: as above
How it was run: as §2

MDA-MB-468 [13] = assay: as above
How it was run: as §2

HDQ-P1 [14] = assay: as above
How it was run: as §2

CNCc1ccc(-c2[nH]c3cc(F)cc4c3c2CCNC4=O)cc1 [Rucaparib]
Conditions | drug sensitivity score
BT-474 | 0
BT-549 | 0
CAL-51 [3] | 0
CAL-85-1 [4] | 0
CAL-120 | 0
CAL-148 | 0
DU-4475 | 0
HCC1143 | 0
HCC1599 [2] | 0
HCC1937 [5] | 0
HDQ-P1 [7] | 0
Hs578T | 1.33
MCF-10A | 0
MDA-MB-231 | 0
MDA-MB-436 | 0
MDA-MB-453 | 0
MDA-MB-468 [6] | 10.6
MFM-223 [1] | 0

normalised viability [%]
Conditions | CAL-51 [10] | CAL-85-1 [11] | HCC1599 [9] | HCC1937 [12] | HDQ-P1 [14] | MDA-MB-468 [13] | MFM-223 [8]
3 nM | 119 | 93.2 | – | – | 87 | – | –
10 nM | – | – | 95.8 | 55.9 | – | 103 | 95.4
30 nM | 114 | 84.2 | – | – | 88 | – | –
100 nM | 110 | 94.6 | – | – | 88.2 | – | –
1000 nM | – | – | 128 | 72.2 | – | 105 | 99.2
10000 nM | – | – | 96.2 | 52.7 | – | 77.5 | 61.5

N[C@@H](CSC(c1ccccc1)(c1ccccc1)c1ccccc1)C(=O)O [S-trityl-L-cysteine]
Conditions | drug sensitivity score
BT-474 | 0
BT-549 | 0
CAL-51 [3] | 0
CAL-85-1 [4] | 0
CAL-120 | 0
CAL-148 | 0
DU-4475 | 0
HCC1143 | 0
HCC1599 [2] | 0
HCC1937 [5] | 3.46
HDQ-P1 [7] | 0
Hs578T | 0
MCF-10A | 0
MDA-MB-231 | 0
MDA-MB-436 | 0
MDA-MB-453 | 0
MDA-MB-468 [6] | 0
MFM-223 [1] | 0

normalised viability [%]
Conditions | CAL-51 [10] | CAL-85-1 [11] | HCC1599 [9] | HCC1937 [12] | HDQ-P1 [14] | MDA-MB-468 [13] | MFM-223 [8]
12 nM | 87 | 105 | – | – | 94.4 | – | –
40 nM | – | – | 94.9 | 98.7 | – | 102 | 102
120 nM | 90.5 | 106 | – | – | 92.5 | – | –
400 nM | 87 | 101 | – | – | 110 | – | –
4000 nM | – | – | 99.3 | 24.8 | – | 34.5 | 100
40000 nM | – | – | 102 | 22.6 | – | 34.6 | 78.2

COc1cc2nccc(Oc3ccc(NC(=O)C4(C(=O)Nc5ccc(F)cc5)CC4)cc3)c2cc1OC [Cabozantinib]
Conditions | drug sensitivity score
BT-474 | 0
BT-549 | 0
CAL-51 [3] | 0
CAL-85-1 [4] | 0
CAL-120 | 0
CAL-148 | 0
DU-4475 | 0
HCC1143 | 0
HCC1599 [2] | 0
HCC1937 [5] | 0
HDQ-P1 [7] | 0
Hs578T | 0
MCF-10A | 0
MDA-MB-231 | 0
MDA-MB-436 | 0
MDA-MB-453 | 0
MDA-MB-468 [6] | 0
MFM-223 [1] | 0

normalised viability [%]
Conditions | CAL-51 [10] | CAL-85-1 [11] | HCC1599 [9] | HCC1937 [12] | HDQ-P1 [14] | MDA-MB-468 [13] | MFM-223 [8]
0.3 nM | 109 | 89.2 | – | – | 97.7 | – | –
1 nM | – | – | 91.8 | 98 | – | 110 | 88.5
3 nM | 106 | 87.5 | – | – | 93.7 | – | –
10 nM | 97.8 | 88.9 | – | – | 112 | – | –
100 nM | – | – | 88.6 | 87.5 | – | 106 | 84
1000 nM | – | – | 74.6 | 100 | – | 101 | 53.7

CN(C)/N=N/c1[nH]cnc1C(N)=O [Dacarbazine]
Conditions | drug sensitivity score
BT-474 | 0
BT-549 | 0
CAL-51 [3] | 0
CAL-85-1 [4] | 0
CAL-120 | 0
CAL-148 | 2.9
DU-4475 | 0
HCC1143 | 0
HCC1599 [2] | 0
HCC1937 [5] | 3.14
HDQ-P1 [7] | 0
Hs578T | 0
MCF-10A | 0
MDA-MB-231 | 0
MDA-MB-436 | 0
MDA-MB-453 | 0
MDA-MB-468 [6] | 0
MFM-223 [1] | 0

normalised viability [%]
Conditions | CAL-51 [10] | CAL-85-1 [11] | HCC1599 [9] | HCC1937 [12] | HDQ-P1 [14] | MDA-MB-468 [13] | MFM-223 [8]
3 nM | 92.7 | 95.8 | – | – | 107 | – | –
10 nM | – | – | 93.8 | 98 | – | 104 | 90.4
30 nM | 88.9 | 84.6 | – | – | 100 | – | –
100 nM | 88.9 | 90.5 | – | – | 110 | – | –
1000 nM | – | – | 97.1 | 87.3 | – | 104 | 89.3
10000 nM | – | – | 86.7 | 98.5 | – | 88.8 | 104

Clc1ccc(Nc2nnc(Cc3ccncc3)c3ccccc23)cc1 [Vatalanib]
Conditions | drug sensitivity score
BT-474 | 0
BT-549 | 0
CAL-51 [3] | 0
CAL-85-1 [4] | 0
CAL-120 | 0
CAL-148 | 1.43
DU-4475 | 0
HCC1143 | 0
HCC1599 [2] | 0
HCC1937 [5] | 0
HDQ-P1 [7] | 0
Hs578T | 0
MCF-10A | 2.74
MDA-MB-231 | 0
MDA-MB-436 | 0
MDA-MB-453 | 0
MDA-MB-468 [6] | 0
MFM-223 [1] | 0

normalised viability [%]
Conditions | CAL-51 [10] | CAL-85-1 [11] | HCC1599 [9] | HCC1937 [12] | HDQ-P1 [14] | MDA-MB-468 [13] | MFM-223 [8]
3 nM | 104 | 90 | – | – | 105 | – | –
10 nM | – | – | 116 | 75 | – | 98.6 | 99.5
30 nM | 98.7 | 87.6 | – | – | 102 | – | –
100 nM | 104 | 93.4 | – | – | 108 | – | –
1000 nM | – | – | 115 | 95.7 | – | 112 | 99.8
10000 nM | – | – | 113 | 91.9 | – | 78.2 | 111

Reference: the supplement of paper PMC4862054
